Measurements as given in patent US12527739B2 (Alcon Inc., priority 2022, dated 2026).

Legend:
M2 muscarinic receptor = biological target: T1, M2 muscarinic receptor (Homo sapiens, UniProt P08172); test: Muscarinic receptor radioligand displacement binding, M2
T1 sequence (P08172 1-466): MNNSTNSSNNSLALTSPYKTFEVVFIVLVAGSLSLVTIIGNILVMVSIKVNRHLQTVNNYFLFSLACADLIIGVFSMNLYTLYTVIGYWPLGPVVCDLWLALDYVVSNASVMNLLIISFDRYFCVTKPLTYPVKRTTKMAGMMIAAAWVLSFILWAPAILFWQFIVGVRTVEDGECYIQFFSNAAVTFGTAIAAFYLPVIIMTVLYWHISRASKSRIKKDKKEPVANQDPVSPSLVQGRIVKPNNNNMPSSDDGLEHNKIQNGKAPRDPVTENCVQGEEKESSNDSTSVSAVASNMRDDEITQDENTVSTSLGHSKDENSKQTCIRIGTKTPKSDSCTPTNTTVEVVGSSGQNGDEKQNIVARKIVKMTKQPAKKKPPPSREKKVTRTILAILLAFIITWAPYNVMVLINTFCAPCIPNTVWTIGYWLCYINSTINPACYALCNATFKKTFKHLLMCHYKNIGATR

M4 muscarinic receptor = biological target: T2, M4 muscarinic receptor (Homo sapiens, UniProt P08173); test: Muscarinic receptor radioligand displacement binding, M4
T2 sequence (P08173 1-479): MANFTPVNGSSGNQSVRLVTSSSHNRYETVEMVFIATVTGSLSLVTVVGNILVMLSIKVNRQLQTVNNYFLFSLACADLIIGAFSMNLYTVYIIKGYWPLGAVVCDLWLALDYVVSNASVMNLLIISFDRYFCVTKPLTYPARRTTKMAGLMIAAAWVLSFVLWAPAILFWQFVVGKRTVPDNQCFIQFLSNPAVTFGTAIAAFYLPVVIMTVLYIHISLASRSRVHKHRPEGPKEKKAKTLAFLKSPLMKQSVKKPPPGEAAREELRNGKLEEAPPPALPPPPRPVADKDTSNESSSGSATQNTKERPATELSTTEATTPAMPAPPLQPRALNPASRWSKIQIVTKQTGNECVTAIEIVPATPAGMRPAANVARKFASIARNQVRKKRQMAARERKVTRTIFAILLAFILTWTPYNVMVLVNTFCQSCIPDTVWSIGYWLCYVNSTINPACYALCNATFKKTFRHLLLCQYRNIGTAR

M5 muscarinic receptor = biological target: T3, M5 muscarinic receptor (Homo sapiens, UniProt P08912); test: Muscarinic receptor radioligand displacement binding, M5
T3 sequence (P08912 1-532): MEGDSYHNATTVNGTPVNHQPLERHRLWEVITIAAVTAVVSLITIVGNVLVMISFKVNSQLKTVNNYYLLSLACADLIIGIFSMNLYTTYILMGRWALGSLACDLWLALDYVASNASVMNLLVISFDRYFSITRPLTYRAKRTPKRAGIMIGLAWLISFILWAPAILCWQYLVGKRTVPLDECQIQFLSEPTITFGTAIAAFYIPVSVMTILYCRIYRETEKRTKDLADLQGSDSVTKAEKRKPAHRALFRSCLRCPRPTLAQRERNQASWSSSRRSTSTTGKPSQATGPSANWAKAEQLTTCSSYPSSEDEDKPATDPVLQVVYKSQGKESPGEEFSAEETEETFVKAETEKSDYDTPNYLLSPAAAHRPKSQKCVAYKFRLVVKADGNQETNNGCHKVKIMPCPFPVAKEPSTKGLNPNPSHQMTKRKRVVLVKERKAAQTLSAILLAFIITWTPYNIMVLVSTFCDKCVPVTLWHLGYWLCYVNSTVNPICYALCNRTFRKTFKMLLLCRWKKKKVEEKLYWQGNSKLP

[1] = system: form deprivation-induced myopia (FDM); test: Form deprivation-induced myopia (FDM) chick model; assay type: in vivo
[2] = pH adjustment of methyl atropine and benzyl atropine solutions, HPLC analysis; assay type: physicochemical; conditions: for Actual concentration (HPLC) / pH after incubation (24 hours): after pH adjustment; for Initial pH: before pH adjustment
[3] = Concentration of benzyl atropine in freshly prepared simplified formulations; assay type: physicochemical
Source text: Considerable efforts were made to simplify the formulation to reduce the overall amount of surfactants (Table 11).
The combination of two different species of surfactant was unexpected. […] The efficacy of this “double-buffered” vehicle was unexpected.

[4] = HPβCD as a solubilizer for benzyl atropine; assay type: physicochemical; conditions: pH 3.1
[5] = Solubility screen in two simple vehicles, pH 7.4; conditions: for pH of the formulation / Actual Concentration: pH 7.4; for Actual Concentration: 5 min vortexing
[6] = Solubilizing mixtures with citrate and acetate buffers; conditions: for Actual Conc. / Final pH: 7.0% PEG-40 Stearate, 5.0% PEG-35 Castor Oil
[7] = 0.78% Sodium Chloride in 30 mM Acetate Buffer, pH 4.55
[8] = 3.5% PEG-400, 0.46% Sodium Chloride in 30 mM Acetate Buffer, pH 4.62
[9] = 3.5% PEG-400, 5.0% PEG-35 Castor Oil, 0.37% Sodium Chloride in 30 mM Acetate Buffer, pH 4.67
[10] = 5.0% PEG-35 Castor Oil, 0.81% Sodium Chloride in 30 mM Acetate Buffer, pH 4.57
[11] = 7.0% PEG-40 Stearate, 0.58% Sodium Chloride in 30 mM Acetate Buffer, pH 4.64
[12] = 7.0% PEG-40 Stearate, 0.65% Sodium Chloride in 5 mM Phosphate Buffer/30 mM Acetate Buffer
[13] = 0.43% Sodium Chloride, 10.0% HPβCD in 20 mM Phosphate Buffer
[14] = 2.21% Mannitol, 10.0% HPβCD in 20 mM Phosphate Buffer
[15] = 2.5% HPβCD in 20 mM Phosphate Buffer
[16] = 5.0% HPβCD in 20 mM Phosphate Buffer
[17] = 10.0% HPβCD in 20 mM Phosphate Buffer
[18] = 20 mM Citrate Buffer, pH 3.0 before API, 5.0% PEG-400
[19] = 20 mM Citrate Buffer, pH 4.65 before API, 5.0% PEG-400
[20] = 30 mM Acetate Buffer, pH 4.38 before API, 3.5% PEG-400
[21] = 30 mM Acetate Buffer, pH 4.56 before API, 3.5% PEG-400
[22] = 30 mM Acetate Buffer, pH 5.11 before API, 5.0% PEG-400

SMILES: CN1C2CCC1CC(OC(=O)C(CO)(Cc1ccccc1)c1ccccc1)C2 (racemic) [Benzyl Atropine, benzyl atropine]
- binding to the receptor (in words) (M2 muscarinic receptor): not to bind at all
- Ki (M4 muscarinic receptor): 600 nM
- binding to the receptor (in words) (M4 muscarinic receptor): bind weakly
- binding to the receptor (in words) (M5 muscarinic receptor): not to bind at all
- efficacy compared with atropine in FDM chick model ([1]; at approximately ten-fold lower concentration than atropine, FIG. 1 Panel B (24 nmol vs 240 nmol)): as effective as atropine
- efficacy in FDM chick model ([1]; intravitreal injection day 2 and day 4, readout day 5, FIG. 1 Panel A): effective
- change in refractive error (goggled eye value minus ungoggled eye value) ([1]; with respect to 5% v/v ethanol solution, FIG. 1 Panel A): significantly decreased
- Actual concentration (HPLC) ([2]; 30 mM Phosphate Buffer, pH 7.4): 0.05 mg/g
- pH after incubation (24 hours) ([2]; 30 mM Phosphate Buffer, pH 7.4): 6.23
- Initial pH ([2]; 30 mM Phosphate Buffer, pH 7.4): 7.7
- Actual concentration (HPLC) ([2]; Phosphate Buffered Saline): 0.04 mg/g
- pH after incubation (24 hours) ([2]; Phosphate Buffered Saline): 5.7
- Initial pH ([2]; Phosphate Buffered Saline): 7.7
- dissolution upon pH adjustment (in words) ([2]; lowered pH of the vehicle): did not fully dissolve
- Actual Concentration [3, 7]: 0.92 mg/g
- Final Osmolality [3, 7]: 263.5 mOsm/kg
- Final pH [3, 7]: 7.2
- Actual Concentration [3, 8]: 1.79 mg/g
- Final Osmolality [3, 8]: 287 mOsm/kg
- Final pH [3, 8]: 7.1
- Actual Concentration [3, 9]: 3.95 mg/g
- Final Osmolality [3, 9]: 293 mOsm/kg
- Final pH [3, 9]: 7.4
- Actual Concentration [3, 10]: 3.02 mg/g
- Final Osmolality [3, 10]: 306.5 mOsm/kg
- Final pH [3, 10]: 7.5
- Actual Concentration [3, 11]: 4.62 mg/g
- Final Osmolality [3, 11]: 264.5 mOsm/kg
- Final pH [3, 11]: 7.4
- Actual Concentration [3, 12]: 5.32 mg/g
- Final Osmolality [3, 12]: 291 mOsm/kg
- Final pH [3, 12]: 6.4
- highest achievable concentration that did not re-precipitate ([3]; in the presence of 3.5% PEG-400, 5% PEG-35 castor oil, and 0.37% NaCl): 3.9 mg/g
- Actual Concentration [4, 13]: 5.92 mg/g
- Final pH [4, 13]: 5.8
- Actual Concentration [4, 14]: 5.23 mg/g
- Final pH [4, 14]: 5.7
- Concentration Dissolved [4, 15]: 3.53 mg/g
- Final pH [4, 15]: 7.1
- Concentration Dissolved [4, 16]: 4.16 mg/g
- Final pH [4, 16]: 7.0
- Concentration Dissolved [4, 17]: 4.51 mg/g
- Final pH [4, 17]: 7.1
- pH of the formulation ([5]; 30 mM Phosphate Buffer): 7.9
- Actual Concentration ([5]; 30 mM Phosphate Buffer): 0.29 mg/g
- pH of the formulation ([5]; Phosphate Buffered Saline): 8.0
- Actual Concentration ([5]; Phosphate Buffered Saline): 0.30 mg/g
- dissolution in vehicle (in words) ([5]; both vehicles: 30 mM phosphate buffer pH 7.4 and phosphate-buffered saline pH 7.4): did not entirely dissolve
- Actual Conc. [6, 18]: 5.73 mg/g
- Final pH [6, 18]: 4.4
- Actual Conc. [6, 19]: 2.38 mg/g
- Final pH [6, 19]: 5.8
- Actual Conc. [6, 20]: 5.49 mg/g
- Final pH [6, 20]: 4.9
- Actual Conc. [6, 21]: 5.42 mg/g
- Final pH [6, 21]: 5.5
- Actual Conc. [6, 22]: 3.59 mg/g
- Final pH [6, 22]: 7.7
- saturated solubility limit ([6]; from stability assessment, compound crashed out of solution over storage): ~5 mg/g
